# Experimental data: patent publication US20050112573A1, “Method of detecting toxic substance” (priority 2001, published 2005)
# Tested on: yeast genes (level of expressed mRNA)
# Assay: DNA chip analysis of expressed mRNA of yeast genes after 2 h culture with a toxic chemical substance
# Format: cell-based, Saccharomyces cerevisiae S288C
# Conditions: for The level of expressed mRNA in the presence of chemical substance/ (ratio to absence of chemical substance): stress protein genes, DNA chip; for The level of expressed mRNA in the presence of chemical substance/ in its absence, gene YPR184W: yeast gene YPR184W
# Description: Yeast (Saccharomyces cerevtisiae S288C (α SUC2mal mel gap2 CUP1)) were cultured at 25° C. on YPD medium (yeast extract 1%, polypepton 2%, glucose 2%). One of toxic chemical substances was added to the cell at logarithmic growth phase, and the cell was further cultured for two hours. Cell was cultured without any chemical substance in the same condition, and was used as control. Concentrations of the chemical substances were defined to inhibit the growth of the yeast but not lead to death.
# After the completion of cultivation, the culture was centrifuged to collect the cells. To the cells, sodium acetate buffer (50 mM sodium acetate, 10 mM EDTA, 1% SDS) was added, and the mixture was shaken at 65° C. for five minutes, followed by returning to room temperature, and obtaining the supernatant, which procedure was repeated two times. To the supernatant, ½ amount of a solution of phenol/chloroform was added, and the mixture was centrifuged to give a supernatant, which was added with an equal amount of chloroform, and the mixture was centrifuged to give a supernatant. To the supernatant, an equal amount of isopropanol containing 0.3 M sodium acetate was added, and the mixture was allowed to stand at room temperature for 30 minutes, after which the mixture was centrifuged to give a sediment of the whole RNAs. Seventy % ethanol was added to the sediment, and the mixture was again centrifuged to give a sediment, which was then dried and dissolved in water. mRNA was isolated from the whole RNAs as followings. In view of the fact that a poly A chain is attached to the 3′ terminus of mRNA, a polynucleotide having a poly T structure which was immobilized on the surface of latex beads was used to trap the mRNA, and then the mRNA was washed and eluted with spine column (Oligotex-dT30<Super>mRNA Purification Kit, Takara). Reverse transcription of the mRNA was conducted with a reverse transcriptase (Super Script II Reverse Transcriptase; catalogue No. 18064-014, GibcoBRL) using fluorescence-labeled nucleotides to give cDNAs that were introduced with Cy3-dUTP or Cy5-dUTP during the reverse transcription.
# The labeled cDNAs were dissolved in TE buffer (10 mM Tris-HCl/1 mM EDTA, pH8.0), and the solution was dropped on the DNA chip containing the whole genes of yeast (DNA Chip Research Inc. Japan) so that the cDNAs were hybridized on the DNA chip at 65° C. for over 12 hours. The fluoresces intensity of the DNA chip was read with a scanner, and the ratio relative to the fluorescence intensity resulting from the absence of chemical substance was estimated as the following, which is shown in Tables 1 to 9: [formula]
# In the Tables, “Intensity” indicated in the rightmost column is a value of the level of expressed mRNA of each gene in control cells as divided by the average level of the expressions of the whole genes.
smiles,measurement,setting,value
"COc1cc(CNC(=O)CCCCC=CC(C)C)ccc1O [(12), 8-methyl-N-vanillyl-6-nonenamide]",The level of expressed mRNA in the presence of chemical substance/The level of expressed mRNA in the absence of chemical substance,yeast gene YMR314W,1.0
same,The level of expressed mRNA in the presence of chemical substance/The level of expressed mRNA in the absence of chemical substance,yeast gene YNL006W,0.7
same,The level of expressed mRNA in the presence of chemical substance/The level of expressed mRNA in the absence of chemical substance,yeast gene YNL007C,0.7
same,"The level of expressed mRNA in the presence of chemical substance/ (in its absence), gene YNL025C","yeast gene YNL025C, ratio of DNA chip fluorescence intensity to that without chemical substance",0.8
same,The level of expressed mRNA in the presence of chemical substance/ (ratio to absence of chemical substance),yeast gene YNL064C,0.8
same,"The level of expressed mRNA in the presence of chemical substance/ (ratio to absence), gene YNL073W","yeast gene YNL073W, mitochondria-located protein genes, 2 h culture with chemical",0.7
same,The level of expressed mRNA in the presence of chemical substance/The level of expressed mRNA in the absence of chemical substance,yeast gene YNL093W,1.1
same,"The level of expressed mRNA in the presence of chemical substance/ (in its absence), gene YNL192W","yeast gene YNL192W, ratio of DNA chip fluorescence intensity to that without chemical substance",1.1
same,The level of expressed mRNA in the presence of chemical substance/The level of expressed mRNA in the absence of chemical substance,yeast gene YNL333W,1.0
same,The level of expressed mRNA in the presence of chemical substance/The level of expressed mRNA in the absence of chemical substance,yeast gene YNR010W,0.8
same,The level of expressed mRNA in the presence of chemical substance/The level of expressed mRNA in the absence of chemical substance,yeast gene YNR069C,1.2
same,"The level of expressed mRNA in the presence of chemical substance/ (in its absence), gene YNR072W","yeast gene YNR072W, ratio of DNA chip fluorescence intensity to that without chemical substance",1.0
same,The level of expressed mRNA in the presence of chemical substance/ (ratio to absence of chemical substance),yeast gene YNR076W,0.7
same,The level of expressed mRNA in the presence of chemical substance/The level of expressed mRNA in the absence of chemical substance,yeast gene YOL013C,1.1
same,"The level of expressed mRNA in the presence of chemical substance/ (ratio to absence), gene YOL096C","yeast gene YOL096C, mitochondria-located protein genes, 2 h culture with chemical",1.2
same,"The level of expressed mRNA in the presence of chemical substance/ (in its absence), gene YOL096C","yeast gene YOL096C, ratio of DNA chip fluorescence intensity to that without chemical substance",1.2
same,"The level of expressed mRNA in the presence of chemical substance/ (in its absence), gene YOL108C","yeast gene YOL108C, ratio of DNA chip fluorescence intensity to that without chemical substance",1.0
same,"The level of expressed mRNA in the presence of chemical substance/ (in its absence), gene YOL116W","yeast gene YOL116W, ratio of DNA chip fluorescence intensity to that without chemical substance",0.6
same,The level of expressed mRNA in the presence of chemical substance/ (ratio to absence of chemical substance),yeast gene YOL161C,1.3
same,The level of expressed mRNA in the presence of chemical substance/The level of expressed mRNA in the absence of chemical substance,yeast gene YOL164W,1.1
same,The level of expressed mRNA in the presence of chemical substance/ (ratio to absence of chemical substance),yeast gene YOR008C,0.7
same,The level of expressed mRNA in the presence of chemical substance/ (ratio to absence of chemical substance),yeast gene YOR009W,0.4
same,The level of expressed mRNA in the presence of chemical substance/ (ratio to absence of chemical substance),yeast gene YOR010C,0.5
same,The level of expressed mRNA in the presence of chemical substance/The level of expressed mRNA in the absence of chemical substance,yeast gene YOR036W,1.2
same,"The level of expressed mRNA in the presence of chemical substance/ (in its absence), gene YOR103C","yeast gene YOR103C, ratio of DNA chip fluorescence intensity to that without chemical substance",1.2
same,The level of expressed mRNA in the presence of chemical substance/The level of expressed mRNA in the absence of chemical substance,yeast gene YOR117W,2.5
same,The level of expressed mRNA in the presence of chemical substance/The level of expressed mRNA in the absence of chemical substance,yeast gene YOR124C,0.9
same,The level of expressed mRNA in the presence of chemical substance/The level of expressed mRNA in the absence of chemical substance,yeast gene YOR132W,0.7
same,The level of expressed mRNA in the presence of chemical substance/The level of expressed mRNA in the absence of chemical substance,yeast gene YOR157C,1.3
same,"The level of expressed mRNA in the presence of chemical substance/ (in its absence), gene YOR180C","yeast gene YOR180C, ratio of DNA chip fluorescence intensity to that without chemical substance",0.8
same,The level of expressed mRNA in the presence of chemical substance/The level of expressed mRNA in the absence of chemical substance,yeast gene YOR181W,0.8
same,The level of expressed mRNA in the presence of chemical substance/The level of expressed mRNA in the absence of chemical substance,yeast gene YOR185C,1.5
same,The level of expressed mRNA in the presence of chemical substance/The level of expressed mRNA in the absence of chemical substance,yeast gene YOR198C,1.5
same,"The level of expressed mRNA in the presence of chemical substance/ (in its absence), gene YOR251C","yeast gene YOR251C, ratio of DNA chip fluorescence intensity to that without chemical substance",0.9
same,The level of expressed mRNA in the presence of chemical substance/The level of expressed mRNA in the absence of chemical substance,yeast gene YOR259C,0.8
same,The level of expressed mRNA in the presence of chemical substance/The level of expressed mRNA in the absence of chemical substance,yeast gene YOR261C,0.9
same,The level of expressed mRNA in the presence of chemical substance/The level of expressed mRNA in the absence of chemical substance,yeast gene YOR288C,1.4
same,"The level of expressed mRNA in the presence of chemical substance/ (ratio to absence), gene YOR316C","yeast gene YOR316C, mitochondria-located protein genes, 2 h culture with chemical",1.1
same,"The level of expressed mRNA in the presence of chemical substance/ (in its absence), gene YOR348C","yeast gene YOR348C, ratio of DNA chip fluorescence intensity to that without chemical substance",0.7
same,The level of expressed mRNA in the presence of chemical substance/The level of expressed mRNA in the absence of chemical substance,yeast gene YOR355W,0.9
same,"The level of expressed mRNA in the presence of chemical substance/ (in its absence), gene YOR363C","yeast gene YOR363C, ratio of DNA chip fluorescence intensity to that without chemical substance",0.9
same,The level of expressed mRNA in the presence of chemical substance/The level of expressed mRNA in the absence of chemical substance,yeast gene YOR383C,1.1
same,"The level of expressed mRNA in the presence of chemical substance/ (ratio to absence), gene YPL040C","yeast gene YPL040C, mitochondria-located protein genes, 2 h culture with chemical",0.9
same,The level of expressed mRNA in the presence of chemical substance/ (ratio to absence of chemical substance),yeast gene YPL059W,0.8
same,The level of expressed mRNA in the presence of chemical substance/The level of expressed mRNA in the absence of chemical substance,yeast gene YPL089C,0.7
same,The level of expressed mRNA in the presence of chemical substance/The level of expressed mRNA in the absence of chemical substance,yeast gene YPL109C,0.9
same,"The level of expressed mRNA in the presence of chemical substance/ (ratio to absence), gene YPL134C","yeast gene YPL134C, mitochondria-located protein genes, 2 h culture with chemical",0.8
same,The level of expressed mRNA in the presence of chemical substance/ (ratio to absence of chemical substance),yeast gene YPL140C,0.8
same,"The level of expressed mRNA in the presence of chemical substance/ (in its absence), gene YPL148C","yeast gene YPL148C, ratio of DNA chip fluorescence intensity to that without chemical substance",0.7
same,The level of expressed mRNA in the presence of chemical substance/The level of expressed mRNA in the absence of chemical substance,yeast gene YPL149W,0.9
same,The level of expressed mRNA in the presence of chemical substance/The level of expressed mRNA in the absence of chemical substance,yeast gene YPL154C,1.5
same,The level of expressed mRNA in the presence of chemical substance/ (ratio to absence of chemical substance),yeast gene YPL194W,0.9
same,The level of expressed mRNA in the presence of chemical substance/ (ratio to absence of chemical substance),yeast gene YPR005C,0.6
same,The level of expressed mRNA in the presence of chemical substance/The level of expressed mRNA in the absence of chemical substance,yeast gene YPR103W,1.2
same,The level of expressed mRNA in the presence of chemical substance/The level of expressed mRNA in the absence of chemical substance,yeast gene YPR108W,1.0
same,"The level of expressed mRNA in the presence of chemical substance/ (in its absence), gene YPR165W","yeast gene YPR165W, ratio of DNA chip fluorescence intensity to that without chemical substance",0.8
same,"The level of expressed mRNA in the presence of chemical substance/ in its absence, gene YPR184W","energy system protein genes, 2 h culture with the chemical, ratio to control without chemical",1.4
same,"The level of expressed mRNA in the presence of chemical substance/ in its absence, gene YPR184W",ratio of DNA chip fluorescence intensity to that without chemical substance,1.4
